Laboratory results taken from ChEMBL document CHEMBL5034013, “Discovery of VNRX-7145 (VNRX-5236 Etzadroxil): An Orally Bioavailable β-Lactamase Inhibitor for Enterobacterales Expressing Ambler Class A, C, and D Enzymes” (J Med Chem, 2021).

Legend:
[1] = Drug metabolism in Cynomolgus monkey hepatocytes assessed as (R)-2-hydroxy-3-propionamido-3,4-dihydro-2H-benzo[e][1,2]oxaborinine-8-carboxylic acid formation at 2 to 20 uM incubated for 240 mins by UPLC-HR-MS/MS analysis; assay type: ADME, cell-based, Macaca fascicularis, Hepatocyte; conditions: 4 h, dose 2-20 µM
[2] = Metabolic stability in CD-1 mouse liver S9 fraction assessed as half life measured at 3 uM after 2 hrs in absence of NADPH by UPLC-MS/MS analysis; assay type: ADME, subcellular; conditions: s9, 2 h
[3] = Metabolic stability in CD-1 mouse liver S9 fraction assessed as half life measured at 3 uM after 2 hrs in presence of NADPH by UPLC-MS/MS analysis; assay type: ADME, subcellular; conditions: s9, 2 h
[4] = Metabolic stability in Cynomolgus monkey liver S9 fraction assessed as half life at 3 uM measured after 2 hrs in absence of NADPH by UPLC-MS/MS analysis; assay type: ADME, subcellular, Macaca fascicularis; conditions: s9, 2 h
[5] = Metabolic stability in Beagle dog intestinal S9 fraction assessed as half life at 3 uM measured after 2 hrs in absence of NADPH by UPLC-MS/MS analysis; assay type: ADME, subcellular, Canis lupus familiaris, Intestine; conditions: s9, 2 h
[6] = Metabolic stability in Sprague-Dawley rat liver S9 fraction assessed as half life at 3 uM measured after 2 hrs in presence of NADPH by UPLC-MS/MS; assay type: ADME, subcellular; conditions: s9, 2 h
[7] = Metabolic stability in Cynomolgus monkey plasma assessed as half life at 3 uM measured after 2 hrs by UPLC-MS/MS analysis; assay type: ADME, cell-free, Macaca fascicularis
[8] = Drug metabolism in mouse hepatocytes assessed as (R)-2-hydroxy-3-propionamido-3,4-dihydro-2H-benzo[e][1,2]oxaborinine-8-carboxylic acid formation at 2 to 20 uM incubated for 240 mins by UPLC-HR-MS/MS analysis; assay type: ADME, cell-based, Hepatocyte; conditions: 4 h, dose 2-20 µM
[9] = Metabolic stability in CD-1 mouse intestinal S9 fraction assessed as half life measured at 3 uM after 2 hrs in absence of NADPH by UPLC-MS/MS analysis; assay type: ADME, subcellular, Intestine; conditions: s9, 2 h
[10] = Drug metabolism in Beagle dog hepatocytes assessed as (R)-2-hydroxy-3-propionamido-3,4-dihydro-2H-benzo[e][1,2]oxaborinine-8-carboxylic acid formation at 2 to 20 uM incubated for 240 mins by UPLC-HR-MS/MS analysis; assay type: ADME, cell-based, Canis lupus familiaris, Hepatocyte; conditions: 4 h, dose 2-20 µM
[11] = Metabolic stability in Beagle dog liver S9 fraction assessed as half life at 3 uM measured after 2 hrs in presence of NADPH by UPLC-MS/MS analysis; assay type: ADME, subcellular, Canis lupus familiaris; conditions: s9, 2 h
[12] = Drug metabolism in human hepatocytes assessed as (R)-2-hydroxy-3-propionamido-3,4-dihydro-2H-benzo[e][1,2]oxaborinine-8-carboxylic acid formation at 2 to 20 uM incubated for 240 mins by UPLC-HR-MS/MS analysis; assay type: ADME, cell-based, Hepatocyte; conditions: 4 h, dose 2-20 µM
[13] = Metabolic stability in Cynomolgus monkey intestinal S9 fraction assessed as half life at 3 uM measured after 2 hrs in absence of NADPH by UPLC-MS/MS analysis; assay type: ADME, subcellular, Macaca fascicularis, Intestine; conditions: s9, 2 h
[14] = Apparent permeability across basolateral to apical side in human Caco-2 cells at 5 uM measured after 2 hrs by LC-MS/MS method; assay type: ADME, cell-based; conditions: caco-2, 2 h
[15] = Metabolic stability in human plasma assessed as half life at 3 uM measured after 2 hrs by UPLC-MS/MS analysis; assay type: ADME, cell-free
[16] = Metabolic stability in Sprague-Dawley rat intestinal S9 fraction assessed as half life at 3 uM measured after 2 hrs in absence of NADPH by UPLC-MS/MS analysis; assay type: ADME, subcellular, Intestine; conditions: s9, 2 h
[17] = Metabolic stability in Cynomolgus monkey intestinal S9 fraction assessed as half life at 3 uM measured after 2 hrs in presence of NADPH by UPLC-MS/MS analysis; assay type: ADME, subcellular, Macaca fascicularis, Intestine; conditions: s9, 2 h
[18] = Metabolic stability in human intestinal S9 fraction assessed as half life at 3 uM measured after 2 hrs in absence of NADPH by UPLC-MS/MS analysis; assay type: ADME, subcellular, Intestine; conditions: s9, 2 h
[19] = Metabolic stability in Sprague-Dawley rat plasma assessed as half life at 3 uM measured after 2 hrs by UPLC-MS/MS analysis; assay type: ADME, cell-free
[20] = Efflux ratio of apparent permeability from basolateral to apical side over apical to basolateral side in human Caco-2 cells at 5 uM measured after 2 hrs by LC-MS/MS method; assay type: ADME, cell-based; conditions: caco-2, 2 h
[21] = Metabolic stability in Cynomolgus monkey liver S9 fraction assessed as half life at 3 uM measured after 2 hrs in presence of NADPH by UPLC-MS/MS analysis; assay type: ADME, subcellular, Macaca fascicularis; conditions: s9, 2 h
[22] = Metabolic stability in Beagle dog plasma assessed as half life at 3 uM measured after 2 hrs by UPLC-MS/MS analysis; assay type: ADME, cell-free, Canis lupus familiaris
[23] = Drug metabolism in rat hepatocytes assessed as (R)-2-hydroxy-3-propionamido-3,4-dihydro-2H-benzo[e][1,2]oxaborinine-8-carboxylic acid formation at 2 to 20 uM incubated for 240 mins by UPLC-HR-MS/MS analysis; assay type: ADME, cell-based, Hepatocyte; conditions: 4 h, dose 2-20 µM
[24] = Metabolic stability in Sprague-Dawley rat intestinal S9 fraction assessed as half life at 3 uM measured after 2 hrs in presence of NADPH by UPLC-MS/MS analysis; assay type: ADME, subcellular, Intestine; conditions: s9, 2 h
[25] = Metabolic stability in human liver S9 fraction assessed as half life at 3 uM measured after 2 hrs in presence of NADPH by UPLC-MS/MS analysis; assay type: ADME, subcellular; conditions: s9, 2 h
[26] = Drug metabolism in rabbit hepatocytes assessed as (R)-2-hydroxy-3-propionamido-3,4-dihydro-2H-benzo[e][1,2]oxaborinine-8-carboxylic acid formation at 2 to 20 uM incubated for 240 mins by UPLC-HR-MS/MS analysis; assay type: ADME, cell-based, Oryctolagus cuniculus, Hepatocyte; conditions: 4 h, dose 2-20 µM
[27] = Metabolic stability in human intestinal S9 fraction assessed as half life at 3 uM measured after 2 hrs in presence of NADPH by UPLC-MS/MS analysis; assay type: ADME, subcellular, Intestine; conditions: s9, 2 h
[28] = Metabolic stability in CD-1 mouse plasma assessed as half life at 3 uM measured after 2 hrs by UPLC-MS/MS analysis; assay type: ADME, cell-free
[29] = Metabolic stability in Sprague-Dawley rat liver S9 fraction assessed as half life at 3 uM measured after 2 hrs in absence of NADPH by UPLC-MS/MS analysis; assay type: ADME, subcellular; conditions: s9, 2 h
[30] = Metabolic stability in Beagle dog intestinal S9 fraction assessed as half life at 3 uM measured after 2 hrs in presence of NADPH by UPLC-MS/MS analysis; assay type: ADME, subcellular, Canis lupus familiaris, Intestine; conditions: s9, 2 h
[31] = Apparent permeability across apical to basolateral side in human Caco-2 cells at 5 uM measured after 2 hrs by LC-MS/MS method; assay type: ADME, cell-based; conditions: caco-2, 2 h
[32] = Metabolic stability in Beagle dog liver S9 fraction assessed as half life at 3 uM measured after 2 hrs in absence of NADPH by UPLC-MS/MS analysis; assay type: ADME, subcellular, Canis lupus familiaris; conditions: s9, 2 h

For `CCC(=O)N[C@H]1Cc2cccc(C(=O)OCOC(=O)C(CC)CC)c2OB1O` [LEDABORBACTAM ETZADROXIL], the Drug metabolism [1] was “Metabolite_Detected”, the t1/2 [2] was 1.3 min and the t1/2 [3] was 1.2 min. It also gave a t1/2 [4] of 0.9 min, a t1/2 [5] of 119 min and a t1/2 [6] of 2.3 min. For the same molecule, the t1/2 [7] was 22 min, the Drug metabolism [8] was “Metabolite_Detected” and the t1/2 [9] was 1.1 min. The Drug metabolism [10] was “Metabolite_Detected”, the t1/2 [11] was 0.5 min and the Drug metabolism [12] was “Metabolite_Detected”. The t1/2 [13] was 10.1 min, the Papp [14] was 29.4 10^-6 cm/s and the t1/2 [15] was 10.7 min. The t1/2 [16] was 4 min, the t1/2 [17] was 11.2 min and the t1/2 [18] was 3.3 min. It also gave a t1/2 [19] of 1.6 min, a Ratio [20] of 3.2 and a t1/2 [21] of 0.8 min. The t1/2 [22] was 43.9 min, the Drug metabolism [23] was “Metabolite_Detected” and the t1/2 [24] was 3.9 min. The t1/2 [25] was 1 min, the Drug metabolism [26] was “Metabolite_Detected” and the t1/2 [27] was 2.9 min. For the same molecule, the t1/2 [28] was 4.6 min, the t1/2 [29] was 2.8 min and the t1/2 [30] was 49 min. The Papp [31] was 9.22 10^-6 cm/s and the t1/2 [32] was 0.7 min.
